Experiments:
multiple viruses = assay: In vitro stimulation of cells with CDA or CDA/HBcAg, IFN induction and virus elimination, Example 14; type: cell-based
SARS and IAV = type: in vivo; details: BRM without antigen
SARS-COV-2 RBD = assay: Anti-RBD IgG response, CDA dose escalation, Example 13; type: in vivo, Balb/c mice
RBD-ACE2 interaction = assay: ACE2-binding inhibitory activity of the induced antibodies; type: in vivo, Balb/c mice; details: sera after three administrations; FIG. 3
Excerpt: FIG. 3. Inhibitory activity of the antibody response induced by the groups with the strongest anti-RBD response after three administrations, following the immunization schedule described in example 1. A) G2; B) G4; C) G6; D) G11; E) G12 and F) Monoclonal antibody (McAb) CBSSRBD-S.8 used as standard curve to plot the results in the five ELISA plates.
Thus, we studied the antibody response effect on the ACE2-binding inhibitory activity.
The resulting antibody response is capable of inhibiting the binding of the antigen to their cellular receptor ACE2, a process that resembles the interaction of the virus to their cellular receptor. This inhibitory effect is essential to ensure the strong antiviral effect of the immune response against an infectious agent/virus through the specific neutralizing activity. […] This functional aspect of the antibody response is linked to the increased quality of the same response in terms of avidity. […] The quality of the experiment was ensured with the use of a McAb in the standard curve of the five plates used in the study and the reproducibility of the inhibitory effect (FIG. 3F) as well as with the assessment of the ACE2 inhibitory binding in a group that received the placebo of CDA but no antigen ([…]).

Nc1ncnc2c1ncn2[C@@H]1O[C@@H]2COP(=O)(O)O[C@H]3[C@@H](O)[C@H](n4cnc5c(N)ncnc54)O[C@@H]3COP(=O)(O)O[C@H]2[C@H]1O [CDA, cyclic bis(3′-5′) diadenylic acid]
Stimulatory effects and type I / type 2 IFN induction (multiple viruses; in vitro stimulation of cells, synergy in vivo): enhancement of different channels of stimulatory effects | Elimination of viruses in vitro (multiple viruses; multiple viruses): in vitro elimination of multiple viruses | Antibody response against the viral antigens after in vivo treatment (SARS and IAV): high avidity antibody response | Viral titers of SARS and IAV (SARS and IAV; acutely infected subjects and in vitro infected & treated cells, before or after infection): quantitative reduction of the viral titers | Dose of CDA inducing the strongest immune response (SARS-COV-2 RBD; RBD at 50 μg dose (1 mg/mL)): 5 µg | Optimal dose of CDA per mice (SARS-COV-2 RBD; with 12.5 μg of RBD): 10 µg | Inhibitory effect on RBD-ACE2 binding (RBD-ACE2 interaction): strong inhibitory effect
